From ChEMBL document CHEMBL5604063, “ASAP - DENV-2 NS2B-NS3 protease fluorescence dose response” (2024)
“And” between values parts separate entries of the source, which are not always exact repeats. Identical values can stand only once.

What was measured:
Genome polyprotein [1] = biological target: T1, Genome polyprotein (dengue virus type 2, UniProt P29990); assay type: functional, Thailand/16681/1984
Genome polyprotein [2] = biological target: T1, Genome polyprotein; assay type: functional, Thailand/16681/1984; remark: listed apart in the source

T1 sequence (P29990 1346-1475 limits assumed): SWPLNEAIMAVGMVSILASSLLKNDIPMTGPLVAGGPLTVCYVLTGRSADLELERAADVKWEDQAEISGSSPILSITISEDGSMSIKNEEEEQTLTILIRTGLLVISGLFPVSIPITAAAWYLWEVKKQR
T1 sequence (P29990 1476-2093 limits assumed): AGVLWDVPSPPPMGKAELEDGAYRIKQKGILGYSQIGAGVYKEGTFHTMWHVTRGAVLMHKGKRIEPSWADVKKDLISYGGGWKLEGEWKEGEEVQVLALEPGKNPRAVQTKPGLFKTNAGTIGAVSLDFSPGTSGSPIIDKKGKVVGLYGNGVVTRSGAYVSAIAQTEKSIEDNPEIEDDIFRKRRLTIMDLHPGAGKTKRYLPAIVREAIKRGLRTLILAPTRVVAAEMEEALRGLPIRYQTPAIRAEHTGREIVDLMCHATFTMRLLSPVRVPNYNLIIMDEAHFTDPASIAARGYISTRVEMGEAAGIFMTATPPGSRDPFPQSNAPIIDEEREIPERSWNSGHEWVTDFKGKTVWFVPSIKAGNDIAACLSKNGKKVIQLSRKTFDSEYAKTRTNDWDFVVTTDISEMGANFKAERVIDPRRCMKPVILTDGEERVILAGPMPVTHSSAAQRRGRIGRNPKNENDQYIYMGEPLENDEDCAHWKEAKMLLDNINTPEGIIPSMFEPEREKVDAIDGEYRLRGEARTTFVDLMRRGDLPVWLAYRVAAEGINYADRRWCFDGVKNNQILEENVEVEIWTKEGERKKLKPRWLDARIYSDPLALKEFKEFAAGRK

Row | Structure (SMILES) | IC50 (Genome polyprotein [1]) | IC50 (Genome polyprotein [2])
1 | Cc1ncc2c(n1)CCC[C@H]2NC(=O)c1cccc2c1CC(=O)N2 | > 100 µM | > 99.5 µM
2 | O=C1Cc2c(cccc2C(=O)N[C@H]2C[C@H](OC(F)F)C2)N1 | > 100 µM | > 99.5 µM
3 | O=C1Cc2c(cccc2C(=O)Nc2cc3c(cn2)OCCO3)N1 | > 100 µM | > 99.5 µM
4 | Cc1c(C(=O)Nc2ccc3c(c2)CCCC(=O)N3C)cc(C2CC2)n1C | > 100 µM | > 99.5 µM
5 | O=C(Nc1cc2c(c(-c3c[nH]c(=O)c(F)c3)c1)CNC2)c1cc(F)cc2[nH]ncc12 | 38.6 µM and 68.6 µM | 68.4 µM
6 | COc1cc(OC)cc([C@H]2CCN(C(=O)Nc3ccc4c(c3)CNC4)C2)c1 | > 100 µM | > 99.5 µM
7 | COCn1ncc2c(C(=O)Nc3ccc4c(c3)CNC4)cc(Cl)cc21 | > 100 µM | > 99.5 µM
8 | COc1cccc(-c2nc3c(C(=O)Nc4ccc5c(c4)CNC5)cc(F)cc3[nH]2)c1 | > 100 µM | 8.12 µM and 5.22 µM
9 | CO[C@H]1C[C@H](n2ncc3c(C(=O)Nc4ccc5c(c4)CNC5)cc(Cl)cc32)C1 | > 100 µM | > 99.5 µM
10 | O=C1Cc2c(cccc2C(=O)N[C@H]2CCC[C@@H](C(=O)NC3CC3)C2)N1 | > 100 µM | > 99.5 µM
11 | O=C(Nc1ccc2c(c1)CNC2)c1cc(F)cc2[nH]c(CC[C@H]3CCCOC3)nc12 | > 100 µM | 76.2 µM
12 | O=C(Nc1cc(-c2cccnc2)ccn1)c1cc(C2CC2)on1 | > 100 µM | > 99.5 µM
13 | CCO[C@@H]1CC[C@H]1NC(=O)c1cccc2c1CC(=O)N2 | > 100 µM | > 99.5 µM
14 | O=C1Cc2c(cccc2C(=O)NC[C@H]2C[C@@H](n3cccn3)C2)N1 | > 100 µM | > 99.5 µM
15 | O=C1Cc2c(cccc2C(=O)N[C@H]2CCc3ncsc3C2)N1 | > 100 µM | > 99.5 µM
16 | Cc1nc(C2CC2)[nH]c1C(=O)Nc1cc(-c2cccnc2)ccn1 | > 100 µM | > 99.5 µM
17 | CN1C(=O)CC[C@H]1c1nc2c(C(=O)Nc3ccc4c(c3)CNC4)cc(F)cc2[nH]1 | > 100 µM | > 99.5 µM
18 | O=C1Cc2c(cccc2C(=O)N[C@H]2CC[C@H](OC3CCCC3)CC2)N1 | > 100 µM | > 99.5 µM
19 | NCc1cccc(-c2csc3cc(C(=O)Nc4ccc5c(c4)CNC5)ccc23)c1 | > 100 µM | 22.4 µM and 14.7 µM
20 | O=C(Nc1ccc2c(c1)CNC2)c1cc(F)cc2[nH]c(-c3cccc(F)c3)nc12 | 44.1 µM and 36 µM | 4.86 µM and 4.62 µM
21 | Cc1nc(C2(NC(=O)c3cccc4c3CC(=O)N4)CCC2)no1 | > 100 µM | > 99.5 µM

Row | Structure (SMILES) | IC50 (Genome polyprotein [1]) | IC50 (Genome polyprotein [2])
22 | C[C@H]1C[C@H]1c1cc(C(=O)Nc2cc(-c3cccnc3)ccn2)no1 | > 100 µM | > 99.5 µM
23 | O=C1Cc2c(cccc2C(=O)NC2(c3ncccc3F)CC2)N1 | > 100 µM | > 99.5 µM
24 | Cc1[nH]c(-c2ccccc2)cc1C(=O)Nc1cc(-c2cccnc2)ccn1 | > 100 µM | > 99.5 µM
25 | CC(C)NC(=O)[C@H](Nc1ccc2c(c1)CN(C)C2)c1cc(Cl)cc2[nH]ncc12 | 57.6 µM and > 100 µM | > 99.5 µM
26 | Cc1c(C(=O)Nc2cccc(-c3ccc(O)nc3)c2)cc(C2CC2)n1C | > 100 µM | > 99.5 µM
27 | CC1(NC(=O)c2cccc3c2CC(=O)N3)CCOCC1 | > 100 µM | > 99.5 µM
28 | O=C(Nc1ccc2c(c1)CNC2)c1ccc2c(C3=CCNCC3)csc2c1 | > 100 µM | 52.6 µM and 43.4 µM
29 | O=C1Cc2c(cccc2C(=O)Nc2ccc(-c3cccnc3)cn2)N1 | > 100 µM | > 99.5 µM
30 | COc1ccccc1Cn1cnc2cc(C(=O)Nc3ccc4c(c3)CNC4)ccc21 | > 100 µM | > 99.5 µM
31 | CC(C)(O)c1cncc(NC(=O)c2cccc3c2CC(=O)N3)c1 | > 100 µM | > 99.5 µM
32 | COC(=O)N1CCc2cc(NC(=O)c3cc(C4CC4)n(C)c3C)ccc21 | > 100 µM | > 99.5 µM
33 | O=C(Nc1ccc2c(c1)CNC2)c1cccc2c1[C@]1(CCN(C(=O)OCc3ccccc3)C1)C(=O)N2 | > 100 µM | > 99.5 µM
34 | O=C1Cc2c(cccc2C(=O)N[C@H]2C[C@H](c3ccon3)C2)N1 | > 100 µM | > 99.5 µM
35 | CC(C)n1ncc2c(C(=O)Nc3ccc4c(c3)CNC4)cc(Cl)cc21 | > 100 µM | > 99.5 µM
36 | O=C1Cc2c(cccc2C(=O)NC2(c3ccc(O)nc3)CC2)N1 | > 100 µM | > 99.5 µM
37 | Cc1cc(=O)[nH]c(-c2cccc(NC(=O)c3cc(C4CC4)n(C)c3C)c2)n1 | > 100 µM | > 99.5 µM
38 | NC(=O)N1CCc2ccc(NC(=O)c3cccc4c3CC(=O)N4)cc21 | > 100 µM | > 99.5 µM
39 | Cc1[nH]nc2c1CC[C@H](NC(=O)c1cccc3c1CC(=O)N3)C2 | > 100 µM | > 99.5 µM
40 | COc1cc(C#N)cc([C@H](Nc2ccc3c(c2)CNC3)C(=O)NCC(F)F)c1 | > 100 µM | > 99.5 µM
41 | N#Cc1csc2cc(C(=O)Nc3ccc4c(c3)CNC4)ccc12 | > 100 µM | > 99.5 µM
42 | O=C(Nc1ccc2c(c1)CNC2)c1cc(F)cc(C2=CCOCC2)c1 | > 100 µM | > 49.7 µM

Row | Structure (SMILES) | IC50 (Genome polyprotein [1]) | IC50 (Genome polyprotein [2])
43 | Cc1c(NC(=O)c2cccc3c2CC(=O)N3)cnn1C1CCOCC1 | > 100 µM | > 99.5 µM
44 | C=CCNC(=O)C1(NC(=O)c2cccc3c2CC(=O)N3)CCCCC1 | > 100 µM | > 99.5 µM
45 | COc1ccc([C@@H]2C[C@H]2NC(=O)c2cccc3c2CC(=O)N3)cc1 | > 100 µM | > 99.5 µM
46 | COc1cc(-c2cc(NC(=O)c3cc(F)cc4[nH]ncc34)cc3c2CNC3)ccn1 | 29 µM and 73.2 µM | 42.4 µM and 32.7 µM
47 | Cc1c(C(=O)Nc2cccc(Cn3ccccc3=O)c2)cc(C2CC2)n1C | > 100 µM | > 99.5 µM
48 | O=C1Cc2c(cccc2C(=O)N[C@H]2CC[C@@H](n3ccnn3)CC2)N1 | > 100 µM | > 99.5 µM
49 | CC(C)n1cc2c(C(=O)Nc3ccc4c(c3)CNC4)cc(Cl)cc2n1 | > 100 µM | > 99.5 µM
50 | COC(=O)c1cc2c(cc1NC(=O)c1cc(F)cc3[nH]ncc13)CNC2 | > 100 µM | > 99.5 µM
51 | Cc1c(C(=O)Nc2cccc(C(=O)NC3CC3)c2)cc(C2CC2)n1C | > 100 µM | > 99.5 µM
52 | O=C1Cc2c(cccc2C(=O)NC2CC3(CCOCC3)C2)N1 | > 100 µM | > 99.5 µM
53 | Cc1c(C(=O)Nc2cc(C#N)cn(C)c2=O)cc(C2CC2)n1C | > 100 µM | > 99.5 µM
54 | O=C1Cc2c(cccc2C(=O)N[C@H]2CCc3cnccc32)N1 | > 100 µM | > 99.5 µM
55 | C[C@H](NC(=O)c1cccc2c1CC(=O)N2)c1cc2cnccc2o1 | > 100 µM | > 99.5 µM
56 | C[C@H](NC(=O)c1cccc2c1CC(=O)N2)c1ccncc1F | > 100 µM | > 99.5 µM
57 | CCCn1ncc2c(C(=O)Nc3ccc4c(c3)CNC4)cc(Cl)cc21 | > 100 µM | > 99.5 µM
58 | Cn1nc(CNc2ccc3c(c2)CNC3)cc1C1CC1 | > 100 µM | > 99.5 µM
59 | O=C(Nc1ccc2c(c1)CNC2)c1cc(Cl)cc2c1cnn2C1CCC1 | > 100 µM | > 99.5 µM
60 | O=C1Cc2c(cccc2C(=O)NC[C@H]2CCCN(c3nccs3)C2)N1 | > 100 µM | > 99.5 µM
61 | Cn1ncc(C(=O)Nc2cc(-c3cccnc3)ccn2)c1C1CC1 | > 100 µM | > 99.5 µM
62 | O=C1Cc2c(cccc2C(=O)NCC2(F)CC3(CCOCC3)C2)N1 | > 100 µM | > 99.5 µM
